In brackets after ≈: the same amount, converted by molar mass. Read-outs that look alike come from different tables or passages of the source.
Legend:
[1] = test system: K. pneumoniae ATCC 10031; experiment: Intrinsic MIC assay (broth microdilution), K. pneumoniae; type: cell-based, Klebsiella pneumoniae; conditions: Klebsiella pneumoniae
Experimental: (§1) MIC assays were conducted in accordance with Clinical and Laboratory Standards Institute (CLSI) guidelines for broth microdilution.
(§2) The intrinsic MIC of the experimental EPIs was tested with the method described. The 2-fold serial dilution begins with 100 μg/mL of tested compound in the first column of the 96-well plates. The following Gram-negative bacterial strains were included in these assays: • Escherichia coli ATCC 25922 • Klebsiella pneumoniae ATCC 13883 and ATCC 10031 • Pseudomonas aeruginosa ATCC 27853. • Pseudomonas aeruginosa PAO1 • Acinetobacter baumannii ATCC 19606

[2] = test system: E. coli ATCC 25922; experiment: Intrinsic MIC assay (broth microdilution), E. coli; type: cell-based, Escherichia coli; conditions: Escherichia coli
Experimental: as §1, §2

[3] = test system: P. Aeruginosa PAO1; experiment: MIC assay in the presence of a bacterial efflux pump inhibitor (EPI), P. aeruginosa PAO1; type: cell-based, Pseudomonas aeruginosa; conditions: in the presence of 12.5 μg/ml of N-(((2S,4R)-4-(aminomethyl)pyrrolidin-2-yl)methyl)-6-(4-fluorophenyl)-1H-indole-2-carboxamide
Experimental: The ability of a compound to produce an antibiotic effect can be determined using a method as described in Example 11. Data for representative compounds used in combination with the bacterial efflux pump inhibitor (EPI) N-(((2S,4R)-4-(aminomethyl)pyrrolidin-2-yl)methyl)-6-(4-fluorophenyl)-1H-indole-2-carboxamide is shown in Table 1.
as §1
The EPI assay for the purposes of these studies represents a MIC assay in which the MIC of the antibiotic against the bacteria is tested in the presence of an experimental efflux pump inhibitor (EPI). The highest concentration of the EPI present in the assay typically is ½ of the intrinsic MIC of the compound. […] Using serial dilutions of the EPI, its enhancement of antibiotic activity was then evaluated. The relative EPI activity was decided by comparing the MIC of the antibiotic in the presence of the EPI compound with the intrinsic MIC of the antibiotic alone. For comparative purposes, we generally used EPIs at concentration of 12.5 and 6.25 μg/ml against varying concentration of our test antibiotic.

[4] = test system: P. Aeruginosa PAO1; experiment: Intrinsic MIC assay (broth microdilution), P. aeruginosa PAO1; type: cell-based, Pseudomonas aeruginosa; conditions: for MIC: Pseudomonas aeruginosa, read-out: Intrinsic MIC; for Intrinsic MIC, second value printed in parentheses: not explained
Experimental: as §1, §2

[5] = test system: A. baumannii ATCC 19606; experiment: Intrinsic MIC assay (broth microdilution), A. baumannii; type: cell-based, Acinetobacter baumannii; conditions: Acinetobacter baumannii
Experimental: as §1, §2

[6] = ATCC10031, K. pneumoniae ATCC 10031, read-out: Intrinsic MIC
[7] = ATCC25922, E. coli ATCC 25922, read-out: Intrinsic MIC
[8] = 18 h, P. Aeruginosa PAO1, without EPI
[9] = ATCC19606, A. baumannii ATCC 19606, read-out: Intrinsic MIC
[10] = P. Aeruginosa PAO1, without EPI
[11] = ATCC10031, read-out: Intrinsic MIC
[12] = ATCC25922, read-out: Intrinsic MIC
[13] = ATCC19606, read-out: Intrinsic MIC

SMILES | MIC [1, 6] | MIC [2, 7] | MIC in the Presence of EPI* [3] | MIC [4, 8] | MIC [5, 9] | Intrinsic MIC [4, 10] | Intrinsic MIC, second value printed in parentheses [4, 10] | MIC [1, 11] | MIC [2, 12] | MIC ([4]; PAO1, 18 h) | MIC [5, 13]
CC(N)c1cc2c(Cl)cc(Cl)cc2[nH]1 (centres unmarked) [Example 15, 1-(4,6-Dichloro-1H-indol-2-yl)ethan-1-amine] | 64 mg/L (≈ 279 µM) | 128 mg/L (≈ 559 µM) | 16 mg/L | – | 32 mg/L (≈ 140 µM) | 256 mg/L | – | – | – | – | –
CC(c1cc2cc(Br)ccc2[nH]1)N(C)C (centres unmarked) [Example 16, 1-(5-Bromo-1H-indol-2-yl)-N,N-dimethylethan-1-amine] | 256 mg/L (≈ 958 µM) | 256 mg/L (≈ 958 µM) | 64 mg/L | 256 mg/L (≈ 958 µM) | 128 mg/L (≈ 479 µM) | – | – | – | – | – | –
CC(N)c1cc2cc(F)c(F)cc2[nH]1 (centres unmarked) [Example 17, 1-(5,6-Difluoro-1H-indol-2-yl)ethan-1-amine] | 128 mg/L (≈ 652 µM) | 256 mg/L (≈ 1300 µM) | 8 mg/L | – | 128 mg/L (≈ 652 µM) | 256 mg/L | – | – | – | – | –
NC1CCCCc2c1[nH]c1ccc(Cl)c(Cl)c21 (centres unmarked) [Example 20, 1,2-Dichloro-5,6,7,8,9,10-hexahydrocyclohepta[b]indol-6-amine hydrochloric acid] | – | – | 1 mg/L | – | – | – | – | 2 mg/L (≈ 7.43 µM) | 8 mg/L (≈ 29.7 µM) | 32 mg/L (≈ 119 µM) | 8 mg/L (≈ 29.7 µM)
NC1CCCCc2c1[nH]c1cc(Cl)c(Cl)cc21 (centres unmarked) [Example 21, 2,3-Dichloro-5,6,7,8,9,10-hexahydrocyclohepta[b]indol-6-amine hydrochloric acid] | – | – | 32 mg/L | – | – | – | – | 8 mg/L (≈ 29.7 µM) | 16 mg/L (≈ 59.4 µM) | 256 mg/L (≈ 951 µM) | 16 mg/L (≈ 59.4 µM)
CC(NCCCNC(=O)c1ccc(Cl)s1)c1cc2cc(Br)ccc2[nH]1 (centres unmarked) [Example 27, N-(3-((1-(5-Bromo-1H-indol-2-yl)ethyl)amino)propyl)-5-chlorothiophene-2-carboxamide] | 8 mg/L (≈ 18.1 µM) | – | 64 mg/L | 32 mg/L (≈ 72.6 µM) | – | – | > 256 mg/L | – | – | – | –

More lines, in order of falling MIC [1, 6], values ahead:

MIC [1, 6] | MIC [2, 7] | MIC in the Presence of EPI* [3] | MIC [4, 8] | MIC [5, 9] | Intrinsic MIC [4, 10] | Intrinsic MIC, second value printed in parentheses [4, 10] | SMILES | MIC [1, 11] | MIC [2, 12] | MIC ([4]; PAO1, 18 h) | MIC [5, 13]
64 mg/L (≈ 284 µM) | 128 mg/L (≈ 569 µM) | 8 mg/L | 128 mg/L (≈ 569 µM) | 64 mg/L (≈ 284 µM) | – | – | NCc1cc2cc(Br)ccc2[nH]1 [Example 14, (5-Bromo-1H-indol-2-yl)methanamine] | – | – | – | –
64 mg/L (≈ 216 µM) | – | – | 64 mg/L (≈ 216 µM) | 256 mg/L (≈ 864 µM) | – | 128 mg/L | CC(NCCCN)c1cc2cc(Br)ccc2[nH]1 (centres unmarked) [Example 24, N^1-(1-(5-Bromo-1H-indol-2-yl)ethyl)propane-1,3-diamine] | – | – | – | –
32 mg/L (≈ 127 µM) | 32 mg/L (≈ 127 µM) | 2 mg/L | 128 mg/L (≈ 510 µM) | 64 mg/L (≈ 255 µM) | – | – | NC1CCc2c1[nH]c1ccc(Br)cc21 (centres unmarked) [Example 18, 7-Bromo-1,2,3,4-tetrahydrocyclopenta[b]indol-3-amine] | – | – | – | –
32 mg/L (≈ 104 µM) | 64 mg/L (≈ 208 µM) | – | 64 mg/L (≈ 208 µM) | 256 mg/L (≈ 831 µM) | – | 128 mg/L | NCCCNC1CCc2c1[nH]c1ccc(Br)cc21 (centres unmarked) [Example 29, N^1-(7-Bromo-1,2,3,4-tetrahydrocyclopenta[b]indol-3-yl)propane-1,3-diamine] | – | – | – | –
16 mg/L (≈ 57.3 µM) | 16 mg/L (≈ 57.3 µM) | 4 mg/L | 128 mg/L (≈ 458 µM) | 16 mg/L (≈ 57.3 µM) | – | – | NC1CCCCc2c1[nH]c1ccc(Br)cc21 (centres unmarked) [Example 19, 2-Bromo-5,6,7,8,9,10-hexahydrocyclohepta[b]indol-6-amine] | – | – | – | –
8 mg/L (≈ 33.2 µM) | 16 mg/L (≈ 66.4 µM) | 1 mg/L | – | 8 mg/L (≈ 33.2 µM) | 32 mg/L | – | NC1CCc2c1[nH]c1ccc(Cl)c(Cl)c21 (centres unmarked) [Example 22, 7,8-Dichloro-1,2,3,4-tetrahydrocyclopenta[b]indol-3-amine] | – | – | – | –
8 mg/L (≈ 33.2 µM) | 16 mg/L (≈ 66.4 µM) | 8 mg/L | 64 mg/L (≈ 265 µM) | 16 mg/L (≈ 66.4 µM) | – | – | NC1CCc2c1[nH]c1cc(Cl)c(Cl)cc21 (centres unmarked) [Example 23, 6,7-Dichloro-1,2,3,4-tetrahydrocyclopenta[b]indol-3-amine] | – | – | – | –
8 mg/L (≈ 23.8 µM) | 16 mg/L (≈ 47.6 µM) | – | 64 mg/L (≈ 190 µM) | 32 mg/L (≈ 95.2 µM) | – | 32 mg/L | NCCCNC1CCCCc2c1[nH]c1ccc(Br)cc21 (centres unmarked) [Example 28, N^1-(2-Bromo-5,6,7,8,9,10-hexahydrocyclohepta[b]indol-6-yl)propane-1,3-diamine] | – | – | – | –

— patent publication US11845742B2, “Therapeutic compounds and methods to treat infection” (priority 2017, dated 2023)
